Experimental data published in patent publication US20260184697A1, “EZH1/2 INHIBITOR, PREPARATION THEREOF, AND USE THEREOF IN ANTI-TUMOR THERAPY” (JIANGSU TASLY DIYI PHARMACEUTICAL CO., LTD., priority 2022, published 2026).
pIC50: −log10 of the molar value.

Test system: Karpas-422 cells
Assay: Anti-proliferation by Cell Titer-Glo method (Test Example 3)
Type: cell-based
Conditions: Homo sapiens, KARPAS-422, read-out: Test Example 3 Karpas-422 cell anti-proliferation IC50(nM)
Description: Karpas-422 (Nanjing Kebai, CBP60629) cells were seeded in a 96-well plate (Corning, 3894) at 1,000 cells per well in growth medium (80% 1640 (Hyclone, SH30809.01)+20% FBS (Corning, 35-081-CV)), in a total of 100 μL, and then was added with 25 μL of 5-fold different concentrations of compounds diluted in growth medium. The cell growth group without compound addition was used as a positive control (maximum signal control), and the medium was used as a negative control (minimum signal control), while ensuring that the final contration of DMSO in each reaction well was 0.2%. Then the 96-well cell plate was placed in a cell culture incubator (37° C., 5% CO2) and incubated for 3 days. On the fourth day, the cell culture plate was taken out of the incubator, using a row gun to gently blow the cells up and down to mix, removing 62.5 μL of the cell suspension, adding 50 μL of growth medium and 12.5 μL of compounds of 5 times different concentrations, and then putting them in the cell incubator to incubate for 4 days. On the eighth day, the same method was used as the fourth day to treat the cells, then incubating in the cell culture incubator for 3 days. On the eleventh day, the Cell-Titer Glo (Promega, G7573) was used to detect cell viability, and a microplate reader was used to detect the signal value of luminescence.
The inhibition rate of different concentrations of compounds on cells was calculated as inhibition rate=[1−(compound signal value−negative control signal value)/(positive control signal value-negative control signal value)][…]. The IC50 of the compound on cell activity inhibition was calculated by GraphPad Prism 6 with log(inhibitor) vs. response-Variable slope model fitting. The fitting equation is: Y=Bottom+(Top−Bottom)/(1+10^((Log IC50−X)*Hill Slope)), wherein Y represents the inhibition rate, and X represents the known concentration of the compound after Log.

Structure (SMILES)	IC50
CSc1cc(C)[nH]c(=O)c1CNC(=O)c1cc(Cl)c2c(c1C)O[C@@H]([C@H]1CC[C@@H](N(C)C)CC1)CO2 [Compound 6]	1.3 nM
CSc1cc(C)[nH]c(=O)c1CNC(=O)c1cc(Cl)c2c(c1C)O[C@@H]([C@H]1CC[C@@H](N3CCC3)CC1)CO2 [Compound 32]	2 nM
Cc1cc(C)c(CNC(=O)c2c(C)c3c(c(Cl)c2F)OC[C@H](C2CCC(N(C)C)CC2)O3)c(=O)[nH]1 (stereo partly shown) [Compound 130]	115 nM
Cc1cc(C)c(CNC(=O)c2cc(Cl)c3c(c2Cl)O[C@@H]([C@H]2CC[C@@H](N(C)C)CC2)CO3)c(=O)[nH]1 [Compound 143]	10.7 nM

Same assay, conditions: Homo sapiens; Karpas-422 cells, Cell-Titer Glo on the eleventh day; read-out: Test Example 3 Karpas-422 cell anti-proliferation IC50

pIC50	Structure (SMILES)
7.63	COc1cc(C)[nH]c(=O)c1CNC(=O)c1cc(Cl)c2c(c1C)OC(C1CCC(N(C)C)CC1)CO2 (stereo not shown) [Compound 5]
8.74	COC1CN([C@H]2CC[C@@H]([C@H]3COc4c(Cl)cc(C(=O)NCc5c(SC)cc(C)[nH]c5=O)c(C)c4O3)CC2)C1 [Compound 8]
8.82	CSc1cc(C)[nH]c(=O)c1CNC(=O)c1cc(Cl)c2c(c1C)O[C@@H]([C@H]1CC[C@@H](N3CC(OC4CC4)C3)CC1)CO2 [Compound 11]
8.48	CSc1cc(C)[nH]c(=O)c1CNC(=O)c1cc(Cl)c2c(c1C)O[C@@H]([C@H]1CC[C@@H](N3CC4COCC4C3)CC1)CO2 (stereo partly shown) [Compound 14]
7.70	CSc1cc(C)[nH]c(=O)c1CNC(=O)c1cc(Cl)c2c(c1C)OC(C1CCN(CC3CC3)CC1)CO2 (stereo not shown) [Compound 16]
7.75	CSc1cc(C)[nH]c(=O)c1CNC(=O)c1cc(Cl)c2c(c1C)O[C@@H]([C@H]1CC[C@@H](N3CCN(C)CC3)CC1)CO2 [Compound 18]
7.05	CSc1cc(C)[nH]c(=O)c1CNC(=O)c1cc(Cl)c2c(c1C)O[C@@H]([C@H]1CC[C@H](N3CCN(C)CC3)CC1)CO2 [Compound 19]
8.80	[2H]C([2H])([2H])OC1CN([C@H]2CC[C@@H]([C@H]3COc4c(Cl)cc(C(=O)NCc5c(SC)cc(C)[nH]c5=O)c(C)c4O3)CC2)C1 [Compound 20]
7.85	Cc1cc(C)c(CNC(=O)c2cc(Cl)c3c(c2C)O[C@@H](C2CCC(N(C)C)CC2)CO3)c(=O)[nH]1 (stereo partly shown) [Compound 53]

Biological target: T1, EZH1/SUZ/EED (Homo sapiens, UniProt O75530+Q15022+Q92800)
T1 construct: purchased BPS 51006
Assay: Inhibitory effect on EZH1 by the MTase-Glo method (Test Example 1)
Type: biochemical
Conditions: EZH1/SUZ/EED 25 nM, H3 peptide 10 μM, SAM 3 μM, 30° C. 3 h, read-out: Test Example 1 WT EZH1 IC50
Summary of the method: (§1)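 EZH2/SUZ/EED (6.25 nM) or EZH1/SUZ/EED (25 nM) pre-incubated 15 min with compound in pH 7.6 Bicine buffer, 0.5% DMSO. Biotinylated H3(21-44) peptide 10 μM plus SAM 3 μM reacted 3 h at 30 °C; MTase-Glo luminescence normalized to controls, IC50 from variable-slope fit.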

T1 sequence (Q92800 2-747 limits assumed): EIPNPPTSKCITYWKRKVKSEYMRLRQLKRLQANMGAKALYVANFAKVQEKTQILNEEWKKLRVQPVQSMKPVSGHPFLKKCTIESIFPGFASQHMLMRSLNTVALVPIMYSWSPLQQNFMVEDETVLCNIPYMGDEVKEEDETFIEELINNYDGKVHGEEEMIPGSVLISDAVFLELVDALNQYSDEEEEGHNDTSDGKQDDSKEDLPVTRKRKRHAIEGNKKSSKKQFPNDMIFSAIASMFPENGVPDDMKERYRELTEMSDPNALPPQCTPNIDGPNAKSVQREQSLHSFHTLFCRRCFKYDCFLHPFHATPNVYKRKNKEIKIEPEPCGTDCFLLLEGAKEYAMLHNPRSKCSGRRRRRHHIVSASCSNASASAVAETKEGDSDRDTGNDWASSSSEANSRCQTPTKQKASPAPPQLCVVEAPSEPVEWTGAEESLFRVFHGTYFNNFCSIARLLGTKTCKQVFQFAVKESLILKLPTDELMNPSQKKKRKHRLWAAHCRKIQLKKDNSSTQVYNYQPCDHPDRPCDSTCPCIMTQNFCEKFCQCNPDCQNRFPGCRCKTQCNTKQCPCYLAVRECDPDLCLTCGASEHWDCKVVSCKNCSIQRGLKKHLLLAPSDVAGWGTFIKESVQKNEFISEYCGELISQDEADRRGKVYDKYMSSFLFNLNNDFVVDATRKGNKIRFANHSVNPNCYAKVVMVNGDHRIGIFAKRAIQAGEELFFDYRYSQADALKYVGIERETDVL
T1 sequence (Q15022 2-739 partner limits assumed): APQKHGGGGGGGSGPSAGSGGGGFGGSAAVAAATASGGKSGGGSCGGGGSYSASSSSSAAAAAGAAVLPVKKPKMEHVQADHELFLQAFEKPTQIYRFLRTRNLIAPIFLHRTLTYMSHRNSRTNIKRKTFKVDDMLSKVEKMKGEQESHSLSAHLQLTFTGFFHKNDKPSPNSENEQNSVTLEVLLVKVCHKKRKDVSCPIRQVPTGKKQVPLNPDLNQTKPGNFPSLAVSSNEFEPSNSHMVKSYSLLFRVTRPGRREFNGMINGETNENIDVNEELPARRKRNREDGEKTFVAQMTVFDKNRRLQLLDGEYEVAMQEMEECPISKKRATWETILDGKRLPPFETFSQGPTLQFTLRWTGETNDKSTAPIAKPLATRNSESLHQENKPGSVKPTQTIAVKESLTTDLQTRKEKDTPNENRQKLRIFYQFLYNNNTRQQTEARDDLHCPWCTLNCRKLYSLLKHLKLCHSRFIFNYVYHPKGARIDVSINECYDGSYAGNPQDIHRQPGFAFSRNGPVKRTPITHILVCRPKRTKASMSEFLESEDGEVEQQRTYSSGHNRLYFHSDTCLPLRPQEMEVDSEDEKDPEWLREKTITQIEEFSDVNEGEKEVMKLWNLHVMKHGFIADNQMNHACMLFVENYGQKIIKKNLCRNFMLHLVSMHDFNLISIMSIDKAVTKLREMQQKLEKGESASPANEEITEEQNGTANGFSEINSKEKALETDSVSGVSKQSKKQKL
T1 sequence (O75530 2-441 partner limits assumed): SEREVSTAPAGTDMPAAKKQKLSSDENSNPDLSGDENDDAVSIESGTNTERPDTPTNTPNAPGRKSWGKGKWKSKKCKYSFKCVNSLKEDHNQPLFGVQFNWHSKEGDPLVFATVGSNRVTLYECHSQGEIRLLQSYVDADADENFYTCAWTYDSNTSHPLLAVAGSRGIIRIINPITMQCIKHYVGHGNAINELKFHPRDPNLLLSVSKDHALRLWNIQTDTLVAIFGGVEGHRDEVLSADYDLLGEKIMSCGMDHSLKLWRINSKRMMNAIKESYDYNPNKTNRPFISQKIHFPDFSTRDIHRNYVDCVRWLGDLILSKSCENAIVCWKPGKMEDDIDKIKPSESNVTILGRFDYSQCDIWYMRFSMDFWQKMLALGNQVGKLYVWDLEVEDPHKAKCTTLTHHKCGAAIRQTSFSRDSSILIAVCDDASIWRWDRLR

pIC50	Structure (SMILES)
7.59	COc1cc(C)[nH]c(=O)c1CNC(=O)c1cc(Cl)c2c(c1C)OC(C1CCC(N(C)C)CC1)CO2 (stereo not shown) [Compound 5]
8.21	COC1CN([C@H]2CC[C@@H]([C@H]3COc4c(Cl)cc(C(=O)NCc5c(SC)cc(C)[nH]c5=O)c(C)c4O3)CC2)C1 [Compound 8]
8.32	CSc1cc(C)[nH]c(=O)c1CNC(=O)c1cc(Cl)c2c(c1C)O[C@@H]([C@H]1CC[C@@H](N3CC(OC4CC4)C3)CC1)CO2 [Compound 11]
8.43	CSc1cc(C)[nH]c(=O)c1CNC(=O)c1cc(Cl)c2c(c1C)O[C@@H]([C@H]1CC[C@@H](N3CC4COCC4C3)CC1)CO2 (stereo partly shown) [Compound 14]
7.53	CSc1cc(C)[nH]c(=O)c1CNC(=O)c1cc(Cl)c2c(c1C)OC(C1CCN(CC3CC3)CC1)CO2 (stereo not shown) [Compound 16]
8.13	CSc1cc(C)[nH]c(=O)c1CNC(=O)c1cc(Cl)c2c(c1C)O[C@@H]([C@H]1CC[C@@H](N3CCN(C)CC3)CC1)CO2 [Compound 18]
7.58	CSc1cc(C)[nH]c(=O)c1CNC(=O)c1cc(Cl)c2c(c1C)O[C@@H]([C@H]1CC[C@H](N3CCN(C)CC3)CC1)CO2 [Compound 19]
8.48	[2H]C([2H])([2H])OC1CN([C@H]2CC[C@@H]([C@H]3COc4c(Cl)cc(C(=O)NCc5c(SC)cc(C)[nH]c5=O)c(C)c4O3)CC2)C1 [Compound 20]
7.57	Cc1cc(C)c(CNC(=O)c2cc(Cl)c3c(c2C)O[C@@H](C2CCC(N(C)C)CC2)CO3)c(=O)[nH]1 (stereo partly shown) [Compound 53]

Structure (SMILES)	pIC50
CSc1cc(C)[nH]c(=O)c1CNC(=O)c1cc(Cl)c2c(c1C)O[C@@H]([C@H]1CC[C@@H](N(C)C)CC1)CO2 [Compound 6]	8.40
CSc1cc(C)[nH]c(=O)c1CNC(=O)c1cc(Cl)c2c(c1C)O[C@@H]([C@H]1CC[C@@H](N3CCC3)CC1)CO2 [Compound 32]	8.24
Cc1cc(C)c(CNC(=O)c2c(C)c3c(c(Cl)c2F)OC[C@H](C2CCC(N(C)C)CC2)O3)c(=O)[nH]1 (stereo partly shown) [Compound 130]	6.70
Cc1cc(C)c(CNC(=O)c2cc(Cl)c3c(c2Cl)O[C@@H]([C@H]2CC[C@@H](N(C)C)CC2)CO3)c(=O)[nH]1 [Compound 143]	7.40

Biological target: T2, EZH2/SUZ/EED (Homo sapiens, UniProt O75530+Q15022+Q15910)
T2 construct: purchased BPS 51003
Assay: Inhibitory effect on EZH2 by the MTase-Glo method (Test Example 1)
Type: biochemical
Conditions: EZH2/SUZ/EED 6.25 nM, H3 peptide 10 μM, SAM 3 μM, 30° C. 3 h, read-out: Test Example 1 WT EZH2 IC50
Summary of the method: as §1

T2 sequence (Q15910 2-746 limits assumed): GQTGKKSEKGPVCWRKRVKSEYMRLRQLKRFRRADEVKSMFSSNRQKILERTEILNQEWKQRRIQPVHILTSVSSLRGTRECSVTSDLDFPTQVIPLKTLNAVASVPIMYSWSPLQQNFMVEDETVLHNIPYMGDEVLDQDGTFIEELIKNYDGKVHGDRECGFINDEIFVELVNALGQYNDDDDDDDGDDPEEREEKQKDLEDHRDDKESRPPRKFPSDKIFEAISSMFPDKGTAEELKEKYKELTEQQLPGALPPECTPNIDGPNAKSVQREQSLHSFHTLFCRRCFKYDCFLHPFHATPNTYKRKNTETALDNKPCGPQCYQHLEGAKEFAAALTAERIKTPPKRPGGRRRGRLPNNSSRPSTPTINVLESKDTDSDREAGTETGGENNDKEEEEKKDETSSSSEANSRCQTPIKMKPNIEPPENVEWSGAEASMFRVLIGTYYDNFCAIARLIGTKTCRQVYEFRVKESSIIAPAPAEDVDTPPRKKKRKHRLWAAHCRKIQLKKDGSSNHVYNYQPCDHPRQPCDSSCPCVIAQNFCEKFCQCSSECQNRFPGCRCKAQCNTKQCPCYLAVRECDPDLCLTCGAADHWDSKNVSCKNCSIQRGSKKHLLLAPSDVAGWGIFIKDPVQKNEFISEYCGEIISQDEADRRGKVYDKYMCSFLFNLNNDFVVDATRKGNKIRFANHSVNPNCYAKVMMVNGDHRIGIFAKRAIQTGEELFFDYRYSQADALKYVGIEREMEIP
T2 sequence (Q15022 2-739 partner limits assumed): as the sequence (Q15022 2-739 partner limits assumed) above
T2 sequence (O75530 2-441 partner limits assumed): as the sequence (O75530 2-441 partner limits assumed) above

pIC50	Structure (SMILES)
8.64	COc1cc(C)[nH]c(=O)c1CNC(=O)c1cc(Cl)c2c(c1C)OC(C1CCC(N(C)C)CC1)CO2 (stereo not shown) [Compound 5]
8.25	COC1CN([C@H]2CC[C@@H]([C@H]3COc4c(Cl)cc(C(=O)NCc5c(SC)cc(C)[nH]c5=O)c(C)c4O3)CC2)C1 [Compound 8]
8.09	CSc1cc(C)[nH]c(=O)c1CNC(=O)c1cc(Cl)c2c(c1C)O[C@@H]([C@H]1CC[C@@H](N3CC(OC4CC4)C3)CC1)CO2 [Compound 11]
8.43	CSc1cc(C)[nH]c(=O)c1CNC(=O)c1cc(Cl)c2c(c1C)O[C@@H]([C@H]1CC[C@@H](N3CC4COCC4C3)CC1)CO2 (stereo partly shown) [Compound 14]
8.28	CSc1cc(C)[nH]c(=O)c1CNC(=O)c1cc(Cl)c2c(c1C)OC(C1CCN(CC3CC3)CC1)CO2 (stereo not shown) [Compound 16]
8.46	CSc1cc(C)[nH]c(=O)c1CNC(=O)c1cc(Cl)c2c(c1C)O[C@@H]([C@H]1CC[C@@H](N3CCN(C)CC3)CC1)CO2 [Compound 18]
8.47	CSc1cc(C)[nH]c(=O)c1CNC(=O)c1cc(Cl)c2c(c1C)O[C@@H]([C@H]1CC[C@H](N3CCN(C)CC3)CC1)CO2 [Compound 19]
8.51	[2H]C([2H])([2H])OC1CN([C@H]2CC[C@@H]([C@H]3COc4c(Cl)cc(C(=O)NCc5c(SC)cc(C)[nH]c5=O)c(C)c4O3)CC2)C1 [Compound 20]
8.52	Cc1cc(C)c(CNC(=O)c2cc(Cl)c3c(c2C)O[C@@H](C2CCC(N(C)C)CC2)CO3)c(=O)[nH]1 (stereo partly shown) [Compound 53]

Structure (SMILES)	pIC50
CSc1cc(C)[nH]c(=O)c1CNC(=O)c1cc(Cl)c2c(c1C)O[C@@H]([C@H]1CC[C@@H](N(C)C)CC1)CO2 [Compound 6]	8.60
CSc1cc(C)[nH]c(=O)c1CNC(=O)c1cc(Cl)c2c(c1C)O[C@@H]([C@H]1CC[C@@H](N3CCC3)CC1)CO2 [Compound 32]	8.29
Cc1cc(C)c(CNC(=O)c2c(C)c3c(c(Cl)c2F)OC[C@H](C2CCC(N(C)C)CC2)O3)c(=O)[nH]1 (stereo partly shown) [Compound 130]	7.90
Cc1cc(C)c(CNC(=O)c2cc(Cl)c3c(c2Cl)O[C@@H]([C@H]2CC[C@@H](N(C)C)CC2)CO3)c(=O)[nH]1 [Compound 143]	8.26

Test system: H3K27Me3 methylation in Karpas-422 cells
Assay: H3K27Me3 cell method, inhibition of H3K27Me3 methylation (Test Example 2)
Type: cell-based, human
Conditions: Homo sapiens, KARPAS-422, 72 h, Karpas-422 cells, 3 days incubation, HTRF signal; read-out: Test Example 2 H3K27Me3 inhibition (Karpas-422) IC50
Summary of the method: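 Karpas-422 cells, 15,000/well in 80% RPMI 1640 + 20% FBS, treated with compound dilutions (final DMSO 0.2%) for 3 days at 37 °C, 5% CO2. Cellular H3K27Me3 read by HTRF; viability in parallel by CCK8 at OD405. IC50 from log(inhibitor)-response variable-slope fit of inhibition rate.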

pIC50	Structure (SMILES)
8.10	COc1cc(C)[nH]c(=O)c1CNC(=O)c1cc(Cl)c2c(c1C)OC(C1CCC(N(C)C)CC1)CO2 (stereo not shown) [Compound 5]
8.62	COC1CN([C@H]2CC[C@@H]([C@H]3COc4c(Cl)cc(C(=O)NCc5c(SC)cc(C)[nH]c5=O)c(C)c4O3)CC2)C1 [Compound 8]
8.77	CSc1cc(C)[nH]c(=O)c1CNC(=O)c1cc(Cl)c2c(c1C)O[C@@H]([C@H]1CC[C@@H](N3CC(OC4CC4)C3)CC1)CO2 [Compound 11]
8.17	CSc1cc(C)[nH]c(=O)c1CNC(=O)c1cc(Cl)c2c(c1C)O[C@@H]([C@H]1CC[C@@H](N3CC4COCC4C3)CC1)CO2 (stereo partly shown) [Compound 14]
7.07	CSc1cc(C)[nH]c(=O)c1CNC(=O)c1cc(Cl)c2c(c1C)OC(C1CCN(CC3CC3)CC1)CO2 (stereo not shown) [Compound 16]
7.64	CSc1cc(C)[nH]c(=O)c1CNC(=O)c1cc(Cl)c2c(c1C)O[C@@H]([C@H]1CC[C@@H](N3CCN(C)CC3)CC1)CO2 [Compound 18]
6.55	CSc1cc(C)[nH]c(=O)c1CNC(=O)c1cc(Cl)c2c(c1C)O[C@@H]([C@H]1CC[C@H](N3CCN(C)CC3)CC1)CO2 [Compound 19]
8.49	[2H]C([2H])([2H])OC1CN([C@H]2CC[C@@H]([C@H]3COc4c(Cl)cc(C(=O)NCc5c(SC)cc(C)[nH]c5=O)c(C)c4O3)CC2)C1 [Compound 20]
8.30	Cc1cc(C)c(CNC(=O)c2cc(Cl)c3c(c2C)O[C@@H](C2CCC(N(C)C)CC2)CO3)c(=O)[nH]1 (stereo partly shown) [Compound 53]

Same assay, conditions: Homo sapiens, KARPAS-422, 72 h, read-out: Test Example 2 H3K27Me3 inhibition (Karpas-422) IC50(nM)

Structure (SMILES)	IC50
CSc1cc(C)[nH]c(=O)c1CNC(=O)c1cc(Cl)c2c(c1C)O[C@@H]([C@H]1CC[C@@H](N(C)C)CC1)CO2 [Compound 6]	0.59 nM
CSc1cc(C)[nH]c(=O)c1CNC(=O)c1cc(Cl)c2c(c1C)O[C@@H]([C@H]1CC[C@@H](N3CCC3)CC1)CO2 [Compound 32]	1.7 nM
Cc1cc(C)c(CNC(=O)c2c(C)c3c(c(Cl)c2F)OC[C@H](C2CCC(N(C)C)CC2)O3)c(=O)[nH]1 (stereo partly shown) [Compound 130]	209 nM
Cc1cc(C)c(CNC(=O)c2cc(Cl)c3c(c2Cl)O[C@@H]([C@H]2CC[C@@H](N(C)C)CC2)CO3)c(=O)[nH]1 [Compound 143]	22 nM
